Results taken from US4983582A, “Preventive and therapeutic method for hypertension” (Kao Corporation, priority 1987, dated 1991).
Entries after “also recorded” stand apart in the source; their conditions may differ.

Experiments:
[1] = system: SHR-rat; experiment: Example 2: systolic blood pressure in the SHR, tail artery, closed method, 15 weeks administration; type: in vivo; details: for Systolic blood pressure in the SHR: average, n = 10
Description: To each group comprising 10 male SHR at the age of 9 weeks was dosed average 30 ml/day of the following aqueous solutions for 15 weeks; an aqueous solution of glucose-1-phosphate calcium (1 g/100 ml) represented by the structural formula (a), an aqueous solution of calcium lactate (0.83 g/100 ml), and an aqueous solution of hydrochlorothiazide (0.093 g/100 ml), which is one of the thiazide diuretics, while to a control group was dosed distilled water.
Systolic blood pressure was measured in a closed method in the tail artery of the subject at each time of before administration, 5 weeks of administration, and 15 weeks of administration (the measuring apparatus employed was PS-200 of Rikenkaihatsu Co.).

[2] = system: SHR-rat; experiment: Example 1: systolic blood pressure of SHR-rat at tail, 3 months oral administration; type: in vivo; details: 3 ml/day per orally, average, n = 10
Description: To each group comprising 10 male SHR of approx. 300 g of the body weight was per orally dosed 3 ml/day of the following aqueous solutions for 3 months;
an aqueous solution of glucose-1-phosphate calcium (2 g/100 ml) represented by the structural formula (a), and
an aqueous solution of glucose-1-phosphate calcium containing compounds of the general formulas (a) and (b) in the weight ratio of 9:1,
while to a control group was given distilled water.
The systolic blood pressure was measured at the tail of each subject, every one, two and three months of the administration period.

[3] = acute toxicity on peroral dosing to a mouse; details: in vivo, po, perorally, read-out: peroral dose at which it exhibits an acute toxicity
[4] = Japanese Patent Publication No. 46-7599 for dental caries; cited from earlier work
[5] = 5 weeks after, average 30 ml/day, glucose-1-phosphate calcium 1 g/100 ml, calcium lactate 0.83 g/100 ml, hydrochlorothiazide 0.093 g/100 ml, control 203
[6] = 15 weeks after, average 30 ml/day, glucose-1-phosphate calcium 1 g/100 ml, calcium lactate 0.83 g/100 ml, hydrochlorothiazide 0.093 g/100 ml, control 211
[7] = before administration, control 197

## CC(O)C(=O)O (stereo not drawn) [Calcium lactate, calcium lactate]
[1]; [5]
  Systolic blood pressure in the SHR: 190
[1]; [6]
  Systolic blood pressure in the SHR: 204
[1]; [7]
  Systolic blood pressure in the SHR: 198

## O=P(O)(O)OC1O[C@H](CO)[C@@H](O)[C@H](O)[C@H]1O (stereo partly drawn) [Glucose-1-phosphate calcium (a), glucose-1-phosphate calcium]
[2]; 1 month, control 150
  Systolic blood pressure of SHR-rat at tail: 148
[2]; 2 months, control 187
  Systolic blood pressure of SHR-rat at tail: 153
[2]; 3 months, control 215
  Systolic blood pressure of SHR-rat at tail: 155
[1]; [5]
  Systolic blood pressure in the SHR: 175
[1]; [6]
  Systolic blood pressure in the SHR: 185
[1]; [7]
  Systolic blood pressure in the SHR: 199

## O=P(O)(O)OC1O[C@H](CO)[C@@H](O)[C@H](O)[C@H]1O (stereo partly drawn) [glucose-1-phosphate calcium]
[1]; SHR-rat, Table 2
  reduction of the systolic blood pressure of SHR-rat compared with hydrochlorothiazide: substantially in the same extent as hydrochlorothiazide
[3]
  LD50: ≥ 15000 mg/kg
[4]
  physiological effects already reported: effect of inhibiting dental caries; also recorded: cartilage-calcification promotion effect; also recorded: fatigue-recuperation effect

## NS(=O)(=O)c1cc2c(cc1Cl)NCNS2(=O)=O [Hydrochlorothiazide, hydrochlorothiazide]
[1]; [5]
  Systolic blood pressure in the SHR: 175
[1]; [6]
  Systolic blood pressure in the SHR: 188
[1]; [7]
  Systolic blood pressure in the SHR: 200
